System: α1-adrenoceptor (aorta)
Assay: α-adrenoceptor antagonism, isolated rat aorta, pA2 vs norepinephrine
Parameters: species or system Wistar rat
Conditions: Schild plot, mean ± SEM of six to eight experiments
Procedure: Vascular α-adrenoceptor blocking activity was evaluated in the Wistar rat aorta preparation. Isolated rat aorta preparations were mounted in organ bath and suspended in Krebs solution at 37° C. […] or 75 mM KCl was added to the bath medium after a control concentration-response curve to norepinephrine had been obtained. The tissue was exposed to test compounds for 30 min before rechallenging with norepinephrine. Inhibitions were expressed as percentages of the maximum contraction obtained by the challenge of the tissues with norepinephrine. The 70 mM NaCl on 75 mM KCl solution may to replace with equimolar KCl, if necessary.
The methods published by Huang Y C. et. al. in J Cardiovasc Pharmacol.34, pp.10-20 (1999) and Drug Devel Res. 47, 77-89 (1999). Through referenced and modified method to evaluate, test compounds whether have α1-adrenergic and sertoninergic effect.
Isolated Wistar rat aorta preparations were mounted in organ bath and suspended in Krebs solution (NaCl, 118 mM, KCl, 4.8 mM; CaCl,2.5 mM; MgSO4,1.2 mM; K2PO4,1.2 Mm; […] Mm; glucose, 11 mM) at 37° C. under 1 g resting tension.
Upon balancing for 60 minutes, 10^−10-10^−4 M norepinephrine is administered directly from low concentration to high using 0.5 log unit to gradually increase until the maximum reaction is reached, and this act as the control unit. Then different concentrations of the synthetic testing compounds, 10^−7 M, 10^−6 M, or 10^−5M, are used, and upon 30 minutes of reaction, norepinephrine is used again to complete the cumulative dose. The EC50 value of blocking […] may be obtained from observation of the suppressing effects caused by different concentrations of the synthetic testing compound.
The equation is as follows: […]

## CCOC(=O)C(CCc1ccc(OCC(O)CNCCOc2ccccc2OC)cc1)NC(C)C(=O)N1CCCC1C(=O)O (mixture of isomers) [compound 6, Labetapril]
  α1 pA2 value, Aorta: 6.93
